{
  "source": "PubChem BioAssay AID1963864",
  "about": "(Molecular Pharmacology Branch, DTP, NCI, 2024);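 note: drug exposure lasted seven days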;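 for viability, T/C: 100% = DMSO vehicle wells and lower means fewer viable cells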",
  "test_system": "KRAS PDC multicell spheroid viability",
  "assay": "Anticancer human tumor 521955-158-R6-J3-PDC patient-derived pancreatic carcinoma cell line growth inhibition [KRAS2]",
  "details": "for IC50: curve of first compound; for viability, T/C: stronger effect = lower value",
  "summary_of_the_method": "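Combination screen of spheroid viability in tumor-cell co-cultures with endothelial (HUVEC) and mesenchymal stem cell stroma. Each agent was tested in half-log dilutions, topping at clinical Cmax or at 10 microM without a known Cmax.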",
  "key": {"[1]": {"details": "second compound 0.1 µM, first compound 0.0316 µM"}, "[2]": {"details": "second compound 0.1 µM, first compound 0.1 µM"}, "[3]": {"details": "second compound 0.1 µM, first compound 0.316 µM"}, "[4]": {"details": "second compound 0.1 µM, first compound 1 µM"}, "[5]": {"details": "second compound 0.1 µM, first compound 3.16 µM"}, "[6]": {"details": "second compound 0.316 µM, first compound 0.0316 µM"}, "[7]": {"details": "second compound 0.316 µM, first compound 0.1 µM"}, "[8]": {"details": "second compound 0.316 µM, first compound 0.316 µM"}, "[9]": {"details": "second compound 0.316 µM, first compound 1 µM"}, "[10]": {"details": "second compound 0.316 µM, first compound 3.16 µM"}, "[11]": {"details": "second compound 1 µM, first compound 0.0316 µM"}, "[12]": {"details": "second compound 1 µM, first compound 0.1 µM"}, "[13]": {"details": "second compound 1 µM, first compound 0.316 µM"}, "[14]": {"details": "second compound 1 µM, first compound 1 µM"}, "[15]": {"details": "second compound 1 µM, first compound 3.16 µM"}, "[16]": {"details": "second compound 3.16 µM, first compound 0.0316 µM"}, "[17]": {"details": "second compound 3.16 µM, first compound 0.1 µM"}, "[18]": {"details": "second compound 3.16 µM, first compound 0.316 µM"}, "[19]": {"details": "second compound 3.16 µM, first compound 1 µM"}, "[20]": {"details": "second compound 3.16 µM, first compound 3.16 µM"}},
  "data": [
    {"smiles": "CC1OCC2(CCN(c3cnc(Sc4ccnc(N)c4Cl)c(N)n3)CC2)C1N", "note": "(stereo not given) + C=CC(=O)N1CCN(c2nc(OCC3CCCN3C)nc3c2CCN(c2cccc4cccc(C)c24)C3)CC1CC#N", "values": [
      {"measurement": "IC50", "setting": "second compound 0.0316 µM", "value": "> 10", "unit": "µM"},
      {"measurement": "IC50", "setting": "second compound 0.1 µM", "value": "> 10", "unit": "µM"},
      {"measurement": "IC50", "setting": "second compound 0.316 µM", "value": "> 10", "unit": "µM"},
      {"measurement": "IC50", "setting": "second compound 1 µM", "value": "> 10", "unit": "µM"},
      {"measurement": "IC50", "setting": "second compound 3.16 µM", "value": "< 0.0316", "unit": "µM"},
      {"measurement": "viability, T/C", "setting": "second compound 0.0316 µM, first compound 0.0316 µM", "value": 88.4, "unit": "%"},
      {"measurement": "viability, T/C", "setting": "second compound 0.0316 µM, first compound 0.1 µM", "value": 103, "unit": "%"},
      {"measurement": "viability, T/C", "setting": "second compound 0.0316 µM, first compound 0.316 µM", "value": 92.2, "unit": "%"},
      {"measurement": "viability, T/C", "setting": "second compound 0.0316 µM, first compound 1 µM", "value": 96, "unit": "%"},
      {"measurement": "viability, T/C", "setting": "second compound 0.0316 µM, first compound 3.16 µM", "value": 114, "unit": "%"},
      {"measurement": "viability, T/C", "setting": "second compound 0.0316 µM, first compound 10 µM", "value": 109, "unit": "%"},
      {"measurement": "viability, T/C", "setting": "[1]", "value": 92.7, "unit": "%"},
      {"measurement": "viability, T/C", "setting": "[2]", "value": 97.4, "unit": "%"},
      {"measurement": "viability, T/C", "setting": "[3]", "value": 84.2, "unit": "%"},
      {"measurement": "viability, T/C", "setting": "[4]", "value": 86.1, "unit": "%"},
      {"measurement": "viability, T/C", "setting": "[5]", "value": 114, "unit": "%"},
      {"measurement": "viability, T/C", "setting": "second compound 0.1 µM, first compound 10 µM", "value": 114, "unit": "%"},
      {"measurement": "viability, T/C", "setting": "[6]", "value": 87.5, "unit": "%"},
      {"measurement": "viability, T/C", "setting": "[7]", "value": 86.1, "unit": "%"},
      {"measurement": "viability, T/C", "setting": "[8]", "value": 85, "unit": "%"},
      {"measurement": "viability, T/C", "setting": "[9]", "value": 90.4, "unit": "%"},
      {"measurement": "viability, T/C", "setting": "[10]", "value": 101, "unit": "%"},
      {"measurement": "viability, T/C", "setting": "second compound 0.316 µM, first compound 10 µM", "value": 106, "unit": "%"},
      {"measurement": "viability, T/C", "setting": "[11]", "value": 75.7, "unit": "%"},
      {"measurement": "viability, T/C", "setting": "[12]", "value": 68.7, "unit": "%"},
      {"measurement": "viability, T/C", "setting": "[13]", "value": 64.9, "unit": "%"},
      {"measurement": "viability, T/C", "setting": "[14]", "value": 67.4, "unit": "%"},
      {"measurement": "viability, T/C", "setting": "[15]", "value": 90.2, "unit": "%"},
      {"measurement": "viability, T/C", "setting": "second compound 1 µM, first compound 10 µM", "value": 113, "unit": "%"},
      {"measurement": "viability, T/C", "setting": "[16]", "value": 40.8, "unit": "%"},
      {"measurement": "viability, T/C", "setting": "[17]", "value": 32.3, "unit": "%"},
      {"measurement": "viability, T/C", "setting": "[18]", "value": 25.2, "unit": "%"},
      {"measurement": "viability, T/C", "setting": "[19]", "value": 37.3, "unit": "%"},
      {"measurement": "viability, T/C", "setting": "[20]", "value": 28.9, "unit": "%"},
      {"measurement": "viability, T/C", "setting": "second compound 3.16 µM, first compound 10 µM", "value": 23.7, "unit": "%"}
    ]},
    {"smiles": "CC(=O)OC12COC1CC(O)C1(C)C(=O)C(O)C3=C(C)C(OC(=O)C(O)C(NC(=O)OC(C)(C)C)c4ccccc4)CC(O)(C(OC(=O)c4ccccc4)C21)C3(C)C", "note": "(stereo not given) + CC1OCC2(CCN(c3cnc(Sc4ccnc(N)c4Cl)c(N)n3)CC2)C1N", "values": [
      {"measurement": "IC50", "setting": "second compound 0.1 µM", "value": "> 3.16", "unit": "µM"},
      {"measurement": "IC50", "setting": "second compound 0.316 µM", "value": "> 3.16", "unit": "µM"},
      {"measurement": "IC50", "setting": "second compound 1 µM", "value": "> 3.16", "unit": "µM"},
      {"measurement": "IC50", "setting": "second compound 3.16 µM", "value": "> 3.16", "unit": "µM"},
      {"measurement": "IC50", "setting": "second compound 10 µM", "value": "> 3.16", "unit": "µM"},
      {"measurement": "viability, T/C", "setting": "second compound 0.1 µM, first compound 0.01 µM", "value": 82.9, "unit": "%"},
      {"measurement": "viability, T/C", "setting": "[1]", "value": 65.4, "unit": "%"},
      {"measurement": "viability, T/C", "setting": "[2]", "value": 74.1, "unit": "%"},
      {"measurement": "viability, T/C", "setting": "[3]", "value": 76.1, "unit": "%"},
      {"measurement": "viability, T/C", "setting": "[4]", "value": 95.5, "unit": "%"},
      {"measurement": "viability, T/C", "setting": "[5]", "value": 114, "unit": "%"},
      {"measurement": "viability, T/C", "setting": "second compound 0.316 µM, first compound 0.01 µM", "value": 83, "unit": "%"},
      {"measurement": "viability, T/C", "setting": "[6]", "value": 84.2, "unit": "%"},
      {"measurement": "viability, T/C", "setting": "[7]", "value": 72.5, "unit": "%"},
      {"measurement": "viability, T/C", "setting": "[8]", "value": 74.9, "unit": "%"},
      {"measurement": "viability, T/C", "setting": "[9]", "value": 87.8, "unit": "%"},
      {"measurement": "viability, T/C", "setting": "[10]", "value": 108, "unit": "%"},
      {"measurement": "viability, T/C", "setting": "second compound 1 µM, first compound 0.01 µM", "value": 79.8, "unit": "%"},
      {"measurement": "viability, T/C", "setting": "[11]", "value": 83.4, "unit": "%"},
      {"measurement": "viability, T/C", "setting": "[12]", "value": 69.7, "unit": "%"},
      {"measurement": "viability, T/C", "setting": "[13]", "value": 78.6, "unit": "%"},
      {"measurement": "viability, T/C", "setting": "[14]", "value": 96.7, "unit": "%"},
      {"measurement": "viability, T/C", "setting": "[15]", "value": 114, "unit": "%"},
      {"measurement": "viability, T/C", "setting": "second compound 3.16 µM, first compound 0.01 µM", "value": 88.7, "unit": "%"},
      {"measurement": "viability, T/C", "setting": "[16]", "value": 86.6, "unit": "%"},
      {"measurement": "viability, T/C", "setting": "[17]", "value": 87.3, "unit": "%"},
      {"measurement": "viability, T/C", "setting": "[18]", "value": 94.4, "unit": "%"},
      {"measurement": "viability, T/C", "setting": "[19]", "value": 106, "unit": "%"},
      {"measurement": "viability, T/C", "setting": "[20]", "value": 109, "unit": "%"},
      {"measurement": "viability, T/C", "setting": "second compound 10 µM, first compound 0.01 µM", "value": 99.7, "unit": "%"},
      {"measurement": "viability, T/C", "setting": "second compound 10 µM, first compound 0.0316 µM", "value": 88.9, "unit": "%"},
      {"measurement": "viability, T/C", "setting": "second compound 10 µM, first compound 0.1 µM", "value": 95, "unit": "%"},
      {"measurement": "viability, T/C", "setting": "second compound 10 µM, first compound 0.316 µM", "value": 99, "unit": "%"},
      {"measurement": "viability, T/C", "setting": "second compound 10 µM, first compound 1 µM", "value": 96.1, "unit": "%"},
      {"measurement": "viability, T/C", "setting": "second compound 10 µM, first compound 3.16 µM", "value": 118, "unit": "%"}
    ]}
  ]
}
